Data set [1] relates to 10 human myeloma cell lines. Nature of the data set: MTS cell growth and viability assay. Type of data set: cell-based. The note with it: 72 h. Here is the method:
(§1) Human multiple myeloma cell lines 8226, H929, JJN3, KMH11, KMS11, KMS18, LP1, MM.1 S, OPM2, and U266 were grown in Iscove's modified Dulbecco's medium (IMDM). Cell lines were authenticated with short tandem repeat method in September 2011. In addition, cell lines were continually monitored by morphological inspection. Primary mononuclear cells were isolated from peripheral blood or bone marrow samples from multiple myeloma patients at the Princess Margaret Cancer Centre (Toronto, ON, Canada) by Ficoll density gradient centrifugation and cultured in IMDM. All cell culture media were obtained from the Ontario Cancer Institute Tissue Culture Media Facility (Toronto, ON, Canada) and were supplemented with 10% fetal calf serum, 100 μg/ml penicillin, and 100 μg/ml streptomycin (Hyclone, Logan, UT, USA). […]
(§2) Cellular viability was primarily assessed by MTS assay according to the manufacturer's instructions (Promega, Madison, WI, USA). […] Cell viability was independently confirmed by reading the optical density at 490 nm and by exclusion of trypan blue stain (Invitrogen, Burlington, ON, Canada). Viability of primary mononuclear cells was determined by Annexin V–fluorescein isothiocyanate and propidium iodide co-staining (Biovision Research Products, Mountain View, CA, USA) using flow cytometry according to the manufacturer's instructions after 48 h of treatment with inhibitors or vehicle control.

The subject of data set [2] is primary CD138+ myeloma cells. Nature of the data set: Annexin V flow cytometry viability of primary bone marrow mononuclear cells, myeloma fraction. The class given is cell-based, human. As to the method: as §1, §2
Background: In flow cytometry, cells or beads pass a laser one at a time.

Data set [3] in a line: Metabolic stability assay with pooled mouse liver microsomes. Type of data set: in vitro ADME. The note with it: 5 μM compound, 15 min, 0.5 mg/ml pooled mouse liver microsomes, LC/MS. As to the method:
Pooled liver microsomes isolated from male CD-1 mice were purchased from BD Biosciences (San Jose, CA, USA). Metabolic stability was calculated by measuring the percentage of 5 μM of each test compound remaining after 15 min incubation with 0.5 mg/ml liver microsomes at 37 °C. Compounds were detected by LC/MS using a Xevo quadrupole time-of-flight mass spectrometer and an ACQUITY ultra-performance LC (UPLC) system (Waters Inc., Milford, MA, USA) to determine relative peak areas of each parent compound.
In general terms: Liver microsomes are a subcellular fraction often used to study metabolism.

Data set [4] is described as follows: Pharmacokinetic study in NOD/SCID mice. Type of data set: in vivo. Particulars: plasma, mouse; for bioavailability: 25 mg/kg p.o. vs 5 mg/kg i.v. As to the method:
NOD/SCID mice were administered FV-162 or ONX-0912 at doses of 5 mg/kg intravenously or 25 mg/kg by oral gavage in a 12.5% ethanol, 12.5% Tween-80 vehicle (3 mice per group). Venous blood samples (20–50 μl) were collected at 5, 15, 30 min, and 1, 2, and 4 h postdose. Plasma was separated from whole blood by centrifugation and stored at −20 °C until analysis. […] Venous blood samples (20–50 μl) were collected at 5, 10, 30, and 60 min postdose. Plasma was separated from whole blood by centrifugation and stored at −20 °C until analysis. The Cmax, its associated time (Tmax), the terminal half-life (t1/2), area under the plasma concentration–time curve (AUC), clearance (CL), and volume of distribution (Vd) were evaluated using Pheonix WinNonlin 6.2.1 (Princeton, NJ, USA), and relative oral bioavailability (F%) values were calculated as follows: F%=AUCoral gavage/AUCintravenous × 100.

The test system of data set [5] is C-L subunit activity. Nature of the data set: C-L proteasome activity in RBCs of treated mice. Type of data set: in vivo, mouse. Particulars: FV-162 30 mg/ml as printed in Figure 5e legend.
For data set [6], the system named is T-L subunit activity. Kind of data set: T-L proteasome activity in RBCs of treated mice. Particulars: FV-162 30 mg/ml as printed in Figure 5e legend. The class given is in vivo, mouse.
Data set [7] deals with CT-L proteasome subunit. Nature of the data set: CT-L proteasome activity in whole cell lysates of human myeloma cell lines (Suc-Leu-Leu-Val-Tyr-AMC). The class given is biochemical. As to the method:
Cells were harvested by centrifugation at 1200 r.p.m. at room temperature. Cell pellets were washed with PBS and lysed with assay lysis buffer (50 mM HEPES (2-[4-(2-hydroxyethyl) piperazin-1-yl]ethanesulfonic acid)), pH 7.5; 150 mM NaCl; 1% Triton X-100; 2 mM ATP). Cell lysates were incubated on ice for 30 min, mixed by vortex every 5 min, and centrifuged at 12 000 × g for 10 min. Supernatants were transferred to a 96-well plate in triplicate. For each assay, 10 μg of total protein were incubated for 1 h at 37 °C with increasing concentrations (0.001–10 μM) of test compound or vehicle control diluted in assay buffer (50 mM Tris-HCl (tris(hydroxymethyl)aminomethane-HCl), pH 7.5; 150 mM NaCl). After incubation, a specific fluorogenic proteasome substrate was added to each assay reaction (40 μM in a total volume of 100 μl). […] The excitation wavelength was 360 nm and the fluorescence emission of free AMC released during the enzymatic reaction was detected at 460 nm on a SpectraMax M5 fluorescent spectrophotometric plate reader (Molecular Devices, Sunnyvale, CA, USA). AMC release rate was measured at 37 °C in a kinetic mode, recording every 5 min for 30 min.

Data set [8] relates to NOD/SCID mice. Kind of data set: Dose tolerance studies / MTD in mice. Particulars: 30 mg/kg daily by oral gavage, up to 8 days, NOD/SCID mice. As to the method:
NOD/SCID mice were administered FV-162 (30 mg/kg daily, 7 days/week) in a 5% DMSO, 20% Cremophor vehicle by oral gavage or ONX-0912 (30 mg/kg daily, 7 days/week) in a 5% DMSO, 20% Cremophor vehicle by oral gavage for a week. Mice were monitored for changes in body weight, behavior, and physical appearance.

Data set [9] has as its system patients. Particulars: cited from earlier work.

One may read the AUC as the area under the concentration-time curve, a measure of exposure. Lower therefore signals less exposure. Usually Cmax stands for the maximum level reached in the sampled fluid or tissue. What is called Tmax is the time from dosing to the highest level. For orientation: Vd means a proportionality between amount in the body and measured concentration, not a real space. A low value points to little distribution into tissue. As a reminder, the clearance is the rate of elimination divided by the concentration. Low values mean a low capacity for elimination, high ones a high capacity for elimination. The half-life is the time needed for the level to fall by half in the phase considered. As usually defined, the bioavailability is dose-corrected exposure relative to a reference, in per cent. Read a high bioavailability as good availability. As a reminder, the IC50 is the concentration needed to halve the response being measured. The low end stands for inhibition by little substance, the high end for a need for much substance. Regarding `Cc1ncc(C(=O)N[C@@H](COC(F)F)C(=O)N[C@@H](COC(F)F)C(=O)N[C@@H](Cc2ccccc2)C(=O)[C@@]2(C)CO2)s1` [FV-162], the “cell growth and viability (MTS)” value in data set [1] (all 10 human myeloma cell lines) is “decreased cell growth and viability”. Moreover, the “potency in MTS assay relative to ONX-0912” value in data set [1] (in 5 of the 10 cell lines) is on record as “over two times more potent than ONX-0912”. Besides, the “primary myeloma cells killed” value in [2] (concentrations ⩽0.1 μM, 48 h, n=8 patients) was “At least 80%”. The “percentage of parent compound remaining” value in [3] is on record as “Over 80%”. Besides, in [4] (iv, 5 mg/kg i.v.), the AUC is 111 ng·h/mL, the concentration peaked (Cmax) at 268 ng/mL, the Tmax is 5 min and the Vd was determined as 96 L/kg. In [4] (iv, 5 mg/kg i.v.), the clearance came out at 702 mL/min/kg and the half-life amounted to 95 min. Further, in data set [4] (po, 25 mg/kg p.o.), the AUC is 51.9 ng·h/mL, the highest level (Cmax) was 21 ng/mL and the Tmax is 60 min. For the same molecule, the bioavailability in data set [4] (po) is 10%. In addition, in data set [5], the “inhibition of C-L subunit activity in murine RBCs” value is “did not inhibit”. In addition, the “inhibition of T-L subunit activity in murine RBCs” value in data set [6] is on record as “did not inhibit”. Besides, the “potency in CT-L inhibition relative to ONX-0912” value in data set [7] (in 6 of the 10 cell lines) was “over five times more potent than ONX-0912”. The same molecule came in with an IC50 in [7] (total cell lysates, all 10 human myeloma cell lines tested) of less than 60 nM. Besides, in data set [8], the “toxicity, behavior and body weight on daily dosing” value is on record as “no evidence of toxicity, behavioral change, or loss of body weight”.

Turning to `COC[C@H](NC(=O)c1cnc(C)s1)C(=O)N[C@@H](COC)C(=O)N[C@@H](Cc1ccccc1)C(=O)[C@@]1(C)CO1` [ONX-0912, reference compound], the “induction of death in primary myeloma cells” value in data set [2] (similar concentrations as FV-162, 48 h) is on record as “less effective at inducing death in primary myeloma cells”. The “percentage of parent compound remaining” value in data set [3] is recorded as 56%. Further, the “MTD (not reached at cumulative doses up to)” value in data set [9] (administered twice daily) is on record as greater than 190 mg/day. In addition, in data set [9] (once-daily oral, patients with advanced refractory or recurrent solid tumors), the MTD is recorded as 150 mg/day. For the same molecule, in data set [4] (iv, 5 mg/kg i.v.), the exposure (AUC) is 54.1 ng·h/mL, the Cmax amounted to 187 ng/mL, the Tmax was 5 min and the volume of distribution (Vd) was 48 L/kg. In data set [4] (iv, 5 mg/kg i.v.), this molecule gave a clearance of 1490 mL/min/kg and a half-life of 22 min. Moreover, in data set [4] (po, 25 mg/kg p.o.), the AUC is 8.55 ng·h/mL, the Cmax was determined as 38 ng/mL and the Tmax is 5 min. The bioavailability in data set [4] (po) was determined as 3%.

The values are drawn from publication PMC4650734, “FV-162 is a novel, orally bioavailable, irreversible proteasome inhibitor with improved pharmacokinetics displaying preclinical efficacy with continuous daily dosing” (Cell Death & Disease, 2015).
